Our source for the DC50 values is patent US20240287076A1, “COMPOUNDS FOR TARGETING DEGRADATION OF BRUTON'S TYROSINE KINASE” (BIOGEN MA INC., priority 2021, published 2024).

T1 sequence (Q06187 whole entry, the tested form may be a part): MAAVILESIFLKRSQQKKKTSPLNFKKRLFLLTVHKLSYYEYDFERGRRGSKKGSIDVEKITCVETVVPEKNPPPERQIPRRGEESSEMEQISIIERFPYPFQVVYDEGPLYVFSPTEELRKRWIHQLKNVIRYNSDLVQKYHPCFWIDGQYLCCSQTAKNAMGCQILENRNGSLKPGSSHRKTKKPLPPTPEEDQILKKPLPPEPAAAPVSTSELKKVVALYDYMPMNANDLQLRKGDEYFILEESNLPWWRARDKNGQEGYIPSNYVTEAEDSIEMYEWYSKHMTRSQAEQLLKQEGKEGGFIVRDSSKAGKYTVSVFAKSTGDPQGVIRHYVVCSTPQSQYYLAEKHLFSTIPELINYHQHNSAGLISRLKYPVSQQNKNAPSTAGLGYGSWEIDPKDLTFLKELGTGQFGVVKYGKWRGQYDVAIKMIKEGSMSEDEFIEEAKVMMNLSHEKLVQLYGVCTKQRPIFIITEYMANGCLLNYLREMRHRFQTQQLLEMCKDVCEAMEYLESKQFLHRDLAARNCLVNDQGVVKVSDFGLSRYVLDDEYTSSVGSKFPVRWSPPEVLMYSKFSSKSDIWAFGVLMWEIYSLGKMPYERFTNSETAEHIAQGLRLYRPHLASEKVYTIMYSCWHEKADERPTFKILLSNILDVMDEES

This assay has as its target T1, BTK (Homo sapiens, UniProt Q06187).
T1 construct: The GM01501.3 cell line endogenously expresses BTK with a HiBiT fusion tag via CRISPR knock-in at its C-terminal region; endogenous in cells; host or cells: GM01501.3 (GM01501 cells engineered by CRISPR knock-in of HiBiT at the BTK locus)
Description: BTK degradation assay using the HiBiT Method (Nano-Glo HiBiT Lytic Assay, GM01501.3 cells). In kind it is cell-based. The settings on record: HiBiT Degradation on GM01501.3 BTK @ 6 hours. In short, it runs like this:
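CRISPR knock-in GM01501.3 cells expressing endogenous BTK with C-terminal HiBiT tag, treated 6 h at 37 °C with compounds, 11-point half-log titration from 10 μM top, duplicates. Remaining BTK quantified by Nano-Glo HiBiT lytic luminescence versus DMSO controls; DC50 reported.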
(In general: With HiBiT, luminescence reflects the tagged protein that the partner subunit can reach.)
For orientation: DC50 means the concentration giving 50% degradation. Lower therefore signals a more potent degrader. In the case of `Cn1nc(N2CCC(=O)NC2=O)c2ccc(C3CCN(Cc4ccc(-c5cc6c(-c7ccc(CNC(=O)c8noc(C(C)(C)C)n8)c(F)c7)ncnn6c5)c(F)c4)CC3)cc21` [Example 242, 5-(tert-butyl)-N-(4-(6-(4-((4-(3-(2,4-dioxotetrahydropyrimidin-1(2H)-yl)-1-methyl-1H-indazol-6-yl)piperidin-1-yl)methyl)-2-fluorophenyl)pyrrolo[2,1-f][1,2,4]triazin-4-yl)-2-fluorobenzyl)-1,2,4-oxadiazole-3-carboxamide], the DC50 is less than 0.1 µM.

In the case of `Cc1cc(-c2ncnn3cc(-c4ccc(CN5CCC(c6ccc(C7CCC(=O)NC7=O)cc6F)CC5)cc4)cc23)ccc1CNC(=O)c1noc(C(C)(C)C)n1` (stereo not shown) [Example 9, 5-tert-butyl-N-[[4-[6-[4-[[4-[4-(2,6-dioxo-3-piperidyl)-2-fluoro-phenyl]-1-piperidyl]methyl]phenyl]pyrrolo[2,1-f][1,2,4]triazin-4-yl]-2-methyl-phenyl]methyl]-1,2,4-oxadiazole-3-carboxamide], the DC50 is less than 0.1 µM.

`Cc1cc(-c2ncnn3cc(-c4ccc(CN5CCC(c6ccc(NC7CCC(=O)NC7=O)cc6)CC5)cc4)cc23)ccc1CNC(=O)c1cnc(C(C)C)cn1` (stereo not shown) [Example 91, N-[[4-[6-[4-[[4-[4-[(2,6-dioxo-3-piperidyl)amino]phenyl]-1-piperidyl]methyl]phenyl]pyrrolo[2,1-f][1,2,4]triazin-4-yl]-2-methyl-phenyl]methyl]-5-isopropyl-pyrazine-2-carboxamide] had a DC50 of less than 0.1 µM.

For the compound `Cn1nc(N2CCC(=O)NC2=O)c2ccc(C3CCN(Cc4ccc(-c5cc6nccc(-c7ccc(CNC(=O)c8noc(C(C)(C)C)n8)c(F)c7)n6n5)cc4)CC3)cc21` [Example 164, 5-tert-butyl-N-[[4-[2-[4-[[4-[3-(2,4-dioxohexahydropyrimidin-1-yl)-1-methyl-indazol-6-yl]-1-piperidyl]methyl]phenyl]pyrazolo[1,5-a]pyrimidin-7-yl]-2-fluoro-phenyl]methyl]-1,2,4-oxadiazole-3-carboxamide], the DC50 is less than 0.1 µM.

The compound `Cc1cc(-c2ncnn3cc(OCCN4CCC(c5ccc(NC6CCC(=O)NC6=O)cc5)CC4)cc23)ccc1CNC(=O)c1noc(C(C)(C)C)n1` (stereo not shown) [Example 288, 5-(tert-butyl)-N-(4-(6-(2-(4-(4-((2,6-dioxopiperidin-3-yl)amino)phenyl)piperidin-1-yl)ethoxy)pyrrolo[2,1-f][1,2,4]triazin-4-yl)-2-methylbenzyl)-1,2,4-oxadiazole-3-carboxamide] registered a DC50 of less than 0.1 µM.

The compound `Cc1cc(-c2ncnn3cc(-c4ccc(CN5CCC(c6ccc(NC7CCC(=O)NC7=O)cc6)CC5)c(Cl)c4)cc23)ccc1CNC(=O)c1noc(C(C)(C)C)n1` (stereo not shown) [Example 15, 5-tert-butyl-N-[[4-[6-[3-chloro-4-[[4-[4-[(2,6-dioxo-3-piperidyl)amino]phenyl]-1-piperidyl]methyl]phenyl]pyrrolo[2,1-f][1,2,4]triazin-4-yl]-2-methyl-phenyl]methyl]-1,2,4-oxadiazole-3-carboxamide] gave a DC50 of less than 0.1 µM.

Regarding `Cc1cc(-c2ncnn3cc(C4CC4CN4CCC(c5ccc(NC6CCC(=O)NC6=O)cc5)CC4)cc23)ccc1CNC(=O)c1noc(C(C)(C)C)n1` (stereo not shown) [Example 145, 5-tert-butyl-N-[[4-[6-[2-[[4-[4-[(2,6-dioxo-3-piperidyl)amino]phenyl]-1-piperidyl]methyl]cyclopropyl]pyrrolo[2,1-f][1,2,4]triazin-4-yl]-2-methyl-phenyl]methyl]-1,2,4-oxadiazole-3-carboxamide], the DC50 is less than 0.1 µM.

`CC(C)(C)c1nc(C(=O)NCc2ccc(-c3ncnn4cc(-c5ccc(OCCN6CCC(c7ccc(C8(C)CCC(=O)NC8=O)cc7)CC6)cc5)cc34)cc2F)no1` (stereo not shown) [Example 111, 5-tert-butyl-N-[[2-fluoro-4-[6-[4-[2-[4-[4-(3-methyl-2,6-dioxo-3-piperidyl)phenyl]-1-piperidyl]ethoxy]phenyl]pyrrolo[2,1-f][1,2,4]triazin-4-yl]phenyl]methyl]-1,2,4-oxadiazole-3-carboxamide] had a DC50 of less than 0.1 µM.

For the compound `Cc1cc(-c2ncnn3cc(N4CCN(C(=O)CC(C)(C)CNC(=O)c5ccc(OC6CCC(=O)NC6=O)cc5)CC4)cc23)ccc1CNC(=O)c1noc(C(C)(C)C)n1` (stereo not shown) [Example 192, 5-(tert-butyl)-N-(4-(6-(4-(4-(4-((2,6-dioxopiperidin-3-yl)oxy)benzamido)-3,3-dimethylbutanoyl)piperazin-1-yl)pyrrolo[2,1-f][1,2,4]triazin-4-yl)-2-methylbenzyl)-1,2,4-oxadiazole-3-carboxamide], the DC50 is less than 0.1 µM.

For the compound `Cc1ccc(C(=O)NCc2ccc(-c3ncnn4cc(-c5ccc(CN6CCC(c7ccc(NC8CCC(=O)NC8=O)cc7)CC6)cc5)cc34)cc2C)nc1` (stereo not shown) [Example 87, N-[[4-[6-[4-[[4-[4-[(2,6-dioxo-3-piperidyl)amino]phenyl]-1-piperidyl]methyl]phenyl]pyrrolo[2,1-f][1,2,4]triazin-4-yl]-2-methyl-phenyl]methyl]-5-methyl-pyridine-2-carboxamide], the DC50 is less than 0.1 µM.

For the compound `Cc1cc(-c2ncnn3cc(CCCCN4CCC(c5ccc(NC6CCC(=O)NC6=O)cc5)C(F)(F)C4)cc23)ccc1CNC(=O)c1noc(C(C)(C)C)n1` (stereo not shown) [Example 132, 5-tert-butyl-N-[[4-[6-[4-[4-[4-[(2,6-dioxo-3-piperidyl)amino]phenyl]-3,3-difluoro-1-piperidyl]butyl]pyrrolo[2,1-f][1,2,4]triazin-4-yl]-2-methyl-phenyl]methyl]-1,2,4-oxadiazole-3-carboxamide], the DC50 was less than 0.1 µM.

With `Cc1cc(-c2ncnn3cc(-c4ccc5c(c4)CN(CCCc4ccc(NC6CCC(=O)NC6=O)cc4)C5)cc23)ccc1CNC(=O)c1noc(C(C)(C)C)n1` (stereo not shown) [Example 57, 5-tert-butyl-N-[[4-[6-[2-[3-[4-[(2,6-dioxo-3-piperidyl)amino]phenyl]propyl]isoindolin-5-yl]pyrrolo[2,1-f][1,2,4]triazin-4-yl]-2-methyl-phenyl]methyl]-1,2,4-oxadiazole-3-carboxamide], the DC50 was less than 0.1 µM.

Take `Cc1cc(-c2ncnn3cc(-c4ccc(OCCN5CCC(c6ccc(CN7CCC(=O)NC7=O)cc6)CC5)cc4)cc23)ccc1CNC(=O)c1noc(C(C)(C)C)n1` [Example 106, 5-tert-butyl-N-[[4-[6-[4-[2-[4-[4-[(2,4-dioxohexahydropyrimidin-1-yl)methyl]phenyl]-1-piperidyl]ethoxy]phenyl]pyrrolo[2,1-f][1,2,4]triazin-4-yl]-2-methyl-phenyl]methyl]-1,2,4-oxadiazole-3-carboxamide]: the DC50 was less than 0.1 µM.

`CC(C)(C)c1nc(C(=O)NCc2ccc(-c3ncnn4cc(CCN5CCC(c6ccc(NC7CCC(=O)NC7=O)cn6)CC5)cc34)cc2F)no1` (stereo not shown) [Example 122, 5-tert-butyl-N-[[4-[6-[2-[4-[5-[(2,6-dioxo-3-piperidyl)amino]-2-pyridyl]-1-piperidyl]ethyl]pyrrolo[2,1-f][1,2,4]triazin-4-yl]-2-fluoro-phenyl]methyl]-1,2,4-oxadiazole-3-carboxamide] had a DC50 of less than 0.1 µM.

`CC(C)(C)c1nc(C(=O)NCc2cc(F)c(-c3ncnn4cc(-c5ccc(CN6CCC(c7ccc(NC8CCC(=O)NC8=O)cc7)CC6)cc5)cc34)cc2Cl)no1` (stereo not shown) [Example 49, 5-tert-butyl-N-[[2-chloro-4-[6-[4-[[4-[4-[(2,6-dioxo-3-piperidyl)amino]phenyl]-1-piperidyl]methyl]phenyl]pyrrolo[2,1-f][1,2,4]triazin-4-yl]-5-fluoro-phenyl]methyl]-1,2,4-oxadiazole-3-carboxamide] showed a DC50 of less than 0.1 µM.

For `Cc1cc(-c2ncnn3cc(-c4ccc(CN5C6CCC5CC(c5ccc(NC7CCC(=O)NC7=O)cc5)C6)cc4)cc23)ccc1CNC(=O)c1noc(C(C)(C)C)n1` (stereo not shown) [Example 6, 5-tert-butyl-N-[[4-[6-[4-[[3-[4-[(2,6-dioxo-3-piperidyl)amino]phenyl]-8-azabicyclo[3.2.1]octan-8-yl]methyl]phenyl]pyrrolo[2,1-f][1,2,4]triazin-4-yl]-2-methyl-phenyl]methyl]-1,2,4-oxadiazole-3-carboxamide], the 50% degradation concentration (DC50) was less than 0.1 µM.

The compound `Cc1cc(-c2ncnn3cc(-c4ccc(CN5CCC(c6ccc(NC7CCC(=O)NC7=O)cc6)C(F)(F)C5)cc4)cc23)ccc1CNC(=O)c1noc(C(C)(C)C)n1` (stereo not shown) [Example 240, 5-(tert-butyl)-N-(4-(6-(4-((4-(4-((2,6-dioxopiperidin-3-yl)amino)phenyl)-3,3-difluoropiperidin-1-yl)methyl)phenyl)pyrrolo[2,1-f] [1,2,4]triazin-4-yl)-2-methylbenzyl)-1,2,4-oxadiazole-3-carboxamide] displayed a half-maximal degradation concentration (DC50) of less than 0.1 µM.

Consider `Cc1cc(-c2ncnn3cc(-c4ccc(CN5CCC(c6ccc(NC7CCC(=O)NC7=O)cc6)CC5)cc4)cc23)ccc1CNC(=O)c1ncc(C(C)C)cn1` (stereo not shown) [Example 94, N-[[4-[6-[4-[[4-[4-[(2,6-dioxo-3-piperidyl)amino]phenyl]-1-piperidyl]methyl]phenyl]pyrrolo[2,1-f][1,2,4]triazin-4-yl]-2-methyl-phenyl]methyl]-5-isopropyl-pyrimidine-2-carboxamide], for which the DC50 was less than 0.1 µM.

For `Cc1cc(-c2ncnn3cc(N4CCN(C(=O)c5cn(CCNC(=O)c6ccc(OC7CCC(=O)NC7=O)cc6)nn5)CC4)cc23)ccc1CNC(=O)c1noc(C(C)(C)C)n1` (stereo not shown) [Example 177, 5-(tert-butyl)-N-(4-(6-(4-(1-(2-(4-((2,6-dioxopiperidin-3-yl)oxy)benzamido)ethyl)-1H-1,2,3-triazole-4-carbonyl)piperazin-1-yl)pyrrolo[2,1-f][1,2,4]triazin-4-yl)-2-methylbenzyl)-1,2,4-oxadiazole-3-carboxamide], the DC50 is greater than 1 µM.
